This note sets out measurements from US20260274857A1, “CRYSTAL OF DIHYDROPYRIDINONE DERIVATIVE OR SOLVATE THEREOF” (Shionogi & Co., Ltd., priority 2022, published 2026).

Assay type in all cases: physicochemical
Data set [1] can be described thus: Moisture adsorption/desorption isotherm measurement (DVS). The following applies: for difference in water content between 0% RH and 95% RH: 25° C. From the text:
The moisture adsorption/desorption isotherm measurement is a measurement method for measuring the adsorption and desorption behavior of moisture by measuring a weight change in a solid as a measurement target under each relative humidity condition.
As a basic measurement method, based on the dry weight at 0% RH (relative humidity 0%), the relative humidity is increased every 5% or 10%, and after the weight is stabilized at each relative humidity, the amount of adsorbed water can be determined from the weight increase from the reference value. Similarly, the desorption amount of water can be measured by decreasing the relative humidity every 5% or 10% from 100% RH or 95% RH.
By plotting the value of the weight change at each relative humidity, an adsorption/desorption isotherm can be obtained.
Sorption and desorption of adhesion water and crystal water are affected by particle size, crystallinity, crystal habit, and the like, so that the measurement results may slightly change.
The crystals and amorphous substances obtained in each Example were weighed in an aluminum pan, and allowed to stand at 25° C. and a relative humidity of 0%. The measurement was started after the compound was sufficiently dried and the weight was stabilized, and the weight when the relative humidity changed from 0% to 95% by 5% was recorded. Next, the weight when the relative humidity changed from 95% to 0% by 5% was recorded.
Device: DVS Advantage manufactured by Surface Measurement Systems

A short description of data set [2]: Solid stability test: storage stability (amount of analogous substance by HPLC, appearance). The following applies: temperature, temperature and humidity conditions, light irradiation; analogous substance by HPLC and appearance. How it is done: For the solid stability of the crystal of the compound represented by Formula (I) obtained in Example 1 and the crystal of the compound represented by Formula (II) obtained in Example 16, the chemical stability under temperature, temperature and humidity conditions, and light irradiation was evaluated. The proportion (%) of the analogous substance produced by an HPLC method and the change in appearance were evaluated.
About 10 mg of the crystal was accurately weighed in a 2 mL glass container with a polyethylene stopper. After the glass container was closed, the glass container was stored at 40° C. or 60° C. for 2 weeks, 1 month, 2 months, 3 months, or 6 months. A sample stored at 40° C. is referred to as a 40° C. hermetically sealed product, and a sample stored at 60° C. is referred to as a 60° C. hermetically sealed product. In a state where the glass container was opened, the glass container was stored at a relative humidity of 75±5% at 40° C. or a relative humidity of 89±5% for 2 weeks, 1 month, 2 months, 3 months or 6 months, or in the presence of silica gel at 40° C. for 1 month, 2 months, 3 months or 6 months. A sample stored at 40° C. and a relative humidity of 75±5% or 89±5% is referred to as a 40° C. and 75% relative humidity (also referred to as 40±2° C./75±5% RH) or 40° C. and 89% relative humidity (also referred to as 40±2° C./89% RH) stored product, and a sample stored in the presence of silica gel at 40° C. is referred to as a 40° C. stored product. The −40° C. hermetically sealed product was used as a standard product.
The amount of the analogous substance was measured by an area percentage method by the HPLC method under the following conditions.
HPLC Conditions 1 were used for the crystal and amorphous substance of the compound represented by Formula (I) obtained in Example 1, and HPLC conditions 2 were used for the crystal of the compound represented by Formula (II) obtained in Example 16.
• Detector: ultraviolet absorptiometer (measurement wavelength: 260 nm) • Column: YMC-Triart C18 ExRS, S-1.9 μm, 3.0×100 mm • Column temperature: constant temperature at near 40° C. • Mobile phase A: 0.1% formic acid aqueous solution • Mobile phase B: acetonitrile • Flow rate: about 0.6 mL/min • Injection amount: 3 μL • Sample cooler temperature: about 6° C. • Feed of mobile phase: The mixing ratio of mobile phase A and mobile phase B was changed as shown in Table 18 to control concentration gradient.
Column: Cortecs (2.7 μm 3.0×100 mm)
Column temperature: 40° C.
UV detection wavelength: 254 nm

Data set [3] can be described thus: Test Example 2: solid stability, 40° C. 89% RH 3 months, amount of analogous substance. How it is done:
The crystal and amorphous substance of the compound represented by Formula (I) obtained in Example 1 were stored (40° C., 89% RH 3M) in a hermetically sealed container at 40° C. and a relative humidity of 89% for 3 months, and subjected to a solid stability test to evaluate the amount of an analogous substance.
The crystal or amorphous substance of the compound represented by Formula (I) obtained in Example 1 was dissolved in an acetonitrile aqueous solution (acetonitrile:water=1:1) to prepare a sample solution to be exactly 500 μg/mL.
The purity and the amount of the analogous substance were measured by an area percentage method under the HPLC conditions 1 described in Test Example 1.
The results of the crystal and amorphous substance of the compound represented by Formula (I) obtained in Example 1 are described in the following table. Impurities detected at a retention time (RT, retention time) of 17.527 minutes indicate an increase amount with respect to a standard product.

Data set [4] can be described thus: Powder solubility test (JP-1, JP-2, TCA/JP2). The settings on record: 37° C., 1 hour; for JP1 solubility: JP-1 solution; for TCA/JP2 solubility: JP-2 solution added with taurocholic acid; for JP2 solubility: JP-2 solution. How it is done: The solubility of the crystal of the present invention was evaluated with respect to the solubility when JP-1 solution, JP-2 solution, and JP-2 solution added with taurocholic acid (TCA/JP2) were used as a measurement medium. Evaluation was performed at a dissolved concentration (μg/mL) by an HPLC method.
About 1 mg of the crystal of the present invention was weighed in a 4 mL glass container, and 2 mL of JP-2 solution (1000 mL of water was added to 1.70 g of potassium dihydrogen phosphate and 1.775 g of anhydrous disodium hydrogen phosphate) was added to each container. The mixture was sealed with a polyethylene stopper with Teflon and silicone packing, shaken at 37° C. for 1 hour, and then filtered, and 400 μL of methanol was added to 800 μL of the filtrate to perform 1.5 fold dilution. Whether there were bubbles and precipitates was confirmed, and the compound of the crystal of the present invention was quantified using HPLC by an absolute calibration curve method to calculate the solubility.

The structures appear in SMILES notation.

For the compound `CS(=O)(=O)CC(=O)Nc1c2c(nn1CCCOC(F)(F)F)C[C@@]1(CCOc3cc(OCC(F)(F)F)ccc31)NC2=O` [crystal of the compound represented by Formula (II) obtained], the “hygroscopicity (in words)” value in data set [1] (DVS, 0% to 95% RH) is “no problem in hygroscopicity”. In data set [1] (DVS), the “difference in water content between 0% RH and 95% RH” value is recorded as “about 0.4%”. Moreover, the “Moisture adsorption amount (%)” value stood at 0.0000% in data set [1] (relative humidity 0.0%); 0.0149% in data set [1] (relative humidity 5.0%); 0.0250% in data set [1] (relative humidity 10.0%); 0.0352% in data set [1] (relative humidity 15.0%); 0.0494% in data set [1] (relative humidity 20.0%); 0.0623% in data set [1] (relative humidity 25.0%). In addition, the “Moisture adsorption amount (%)” value in data set [1] (relative humidity 30.0%) came out at 0.0758%; in data set [1] (relative humidity 35.0%) it was 0.0893%; in data set [1] (relative humidity 40.0%), 0.1042%; in data set [1] (relative humidity 45.0%), 0.1204%; in data set [1] (relative humidity 50.0%), 0.1387%; in data set [1] (relative humidity 55.0%), 0.1563%. Moreover, the “Moisture adsorption amount (%)” value in data set [1] (relative humidity 60.0%) is given as 0.1746%; in data set [1] (relative humidity 65.0%), 0.2016%; in data set [1] (relative humidity 70.0%), 0.2334%; in data set [1] (relative humidity 75.0%), 0.2619%; in data set [1] (relative humidity 80.0%) it was 0.2937%; in data set [1] (relative humidity 85.0%) it was 0.3268%. Moreover, the “Moisture adsorption amount (%)” value in data set [1] (relative humidity 90.0%) came to 0.3695%; in data set [1] (relative humidity 95.0%), 0.4243%. Besides, the “Moisture desorption amount (%)” value in data set [1] (relative humidity 0.0%) came out at 0.0690%; in data set [1] (relative humidity 5.0%) it was 0.1029%; in data set [1] (relative humidity 10.0%), 0.1252%; in data set [1] (relative humidity 15.0%), 0.1435%; in data set [1] (relative humidity 20.0%), 0.1610%; in data set [1] (relative humidity 25.0%), 0.1773%. Further, the “Moisture desorption amount (%)” value in data set [1] (relative humidity 30.0%) came out at 0.1922%; in data set [1] (relative humidity 35.0%), 0.2077%; in data set [1] (relative humidity 40.0%) it was 0.2206%; in data set [1] (relative humidity 45.0%), 0.2348%; in data set [1] (relative humidity 50.0%), 0.2497%; in data set [1] (relative humidity 55.0%) it was 0.2659%. Also, the “Moisture desorption amount (%)” value in data set [1] (relative humidity 60.0%) came out at 0.2822%; in data set [1] (relative humidity 65.0%), 0.3038%; in data set [1] (relative humidity 70.0%), 0.3289%; in data set [1] (relative humidity 75.0%), 0.3464%; in data set [1] (relative humidity 80.0%), 0.3627%; in data set [1] (relative humidity 85.0%), 0.3782%. Also, the “Moisture desorption amount (%)” value is 0.4013% in data set [1] (relative humidity 90.0%) and 0.4243% in data set [1] (relative humidity 95.0%). For the same compound, the “solid stability (in words)” value in data set [2] is given as “excellent in solid stability under any conditions”.

Turning to `Cc1ccc(-n2nc3c(c2NC(=O)CS(C)(=O)=O)C(=O)N[C@@]2(CCOc4cc(F)cc(F)c42)C3)nc1` [amorphous substance of the compound represented by Formula (], the “difference in water content between 0% RH and 95% RH” value in data set [1] (DVS) is given as “about 7.0%”. In addition, the “impurities detected at a retention time of 17.527 minutes, increase with respect to standard product (in words)” value in data set [3] is reported as “greatly increased”.

In data set [4], `Cc1ccc(-n2nc3c(c2NC(=O)CS(C)(=O)=O)C(=O)NC2(CCOc4cc(F)cc(F)c42)C3)nc1` (stereo not drawn) [Compound crystal of Formula (I)] showed a JP1 solubility of 59.4 µg/mL, a TCA/JP2 solubility of 143.1 µg/mL and a JP2 solubility of 74.1 µg/mL.

In data set [4], `CS(=O)(=O)CC(=O)Nc1c2c(nn1CCCOC(F)(F)F)CC1(CCOc3cc(OCC(F)(F)F)ccc31)NC2=O` (stereo not drawn) [Compound crystal of Formula (II)] gave a JP1 solubility of 33.6 µg/mL, a TCA/JP2 solubility of 73.6 µg/mL and a JP2 solubility of 37.5 µg/mL.
